Assays:
Format in all cases: in vivo, mouse
[1] = system: DBA/2-mated CBA/J mice; assay: Fetal resorption in DBA/2-mated CBA/J mice, murine model of spontaneous recurrent miscarriage
Experimental: Female mice were allowed to mate with previously isolated male mice. The groups in the present experiment comprised 7-20 animals, one group of DBA/2-mated CBA/J mice and two controls (CBA×Balb/c and Balb/c×Balb/c). After mating, the females were checked daily until the presence of a vaginal plug was confirmed (this time point was then defined as day 0.5 of pregnancy). The mice were sacrificed 15 days post-conception. Uteri were dissected and the frequency of fetal resorption was determined as the number of resorptions divided by total number of formed fetuses and resorptions. Resorption sites, resulting from the loss of a previously viable fetus, are easily identifiable by visual inspection.
Mice were mated as described above, and sacrificed on day 8.5 post-conception. Sections of decidual tissue from CBA/J×Balb/c were incubated with an antibody to mouse C3, and followed by rabbit anti-goat IgG conjugated with HRP (horseradish peroxidase) and staining.
This experiment was carried out to investigate if blockade of complement activation would prevent fetal loss in the murine model of miscarriage. In these experiments, DBA/2-mated CBA/J pregnant mice were treated with three different targeted inhibitors of complement activation.
Crry-Ig. Complement receptor 1-related gene/protein y (Crry) inhibits C3 convertase activity. The Crry used in the experiments was Crry-Ig, which is a recombinant soluble form of Crry fused to the hinge, CH2, and CH3 domains of mouse IgG1, prepared as described in Quigg et al., J Immunol 1998;160:4553-4560. Crry-Ig blocks activation of C3 by both the classical and alternative pathways, thereby preventing all complement effector activities. Pregnant DBA/2-mated CBA/J mice were treated with 3 mg Crry-Ig, administered i.p. on days 8, 10 and 12.
Monoclonal anti-C5 mAb. Also tested was an antibody against C5, which prevents the cleavage of C5. […]
To inhibit factor B, mice were injected on days 7 through 13 of pregnancy with mAb1379 (2 mg intraperitoneally) or with murine IgG as a control. Fetal resorption frequency was calculated on day 15 of pregnancy.

[2] = system: C3 deposition in decidual tissue; assay: Immunohistochemistry of deciduas (C3, human IgG, granulocytes); settings: aPL-IgG treated mice that also received the agent
From the text: (§1) Immunohistochemistry. […] Sections were counterstained with hematoxylin.
as §1

[3] = system: pregnant mice treated with aPL-IgG; assay: aPL antibody-induced pregnancy loss, murine pregnancy model of APS
[4] = mice given aPL-IgG 10 mg i.p. days 8 and 12 plus the agent

## AcPhe(L-ornithine-Pro-D-cyclohexylalanine-Trp-Arg) [C5aR-AP]
[1]; DBA/2-mated CBA/J mice, 100 μg i.p. on day 8, sacrificed day 15
  fetal resorption rate: about 7%
[1]; DBA/2-mated CBA/J mice, inhibitor i.p. during pregnancy, fetal resorption day 15
  fetal loss / pregnancy loss: prevented fetal loss
[1]; uterus from treated DBA/2-mated CBA/J mouse, day 15
  fetuses and resorptions in uterus: 6 larger fetuses with decidua and no resorptions
[2]
  C3 deposition in decidual tissue: minimal C3 deposition
  neutrophil infiltration / inflammation in deciduas: no evidence of inflammation
[3]; [4]
  aPL antibody-induced growth restriction: prevented
  aPL antibody-induced pregnancy loss (fetal resorption): prevented
[3]; mice that received NH-IgG / no aPL antibodies
  frequency of fetal resorption in the absence of aPL antibodies: had no effect

Source: US20070123466A1, “Method of treating recurrent miscarriages” (New York Society for the Ruptured and Crippled Maintaining …, priority 2003, published 2007)
